Like-named read-outs stand apart in the source and are kept apart here. Bounds are passed on as bounds.

Assay [1] has as its system human Th17 cells. Briefly: Cytokine response by in vitro-polarized human Th17 cells stimulated with PMA/ionomycin. The following applies: 10 μM compound, PMA/ionomycin 20 h. Format: cell-based. As to the method:
In vitro differentiation of human Th17 cells: Human CD4+ T cells (isolated as described in protocol A) were polarized into Th17 cells as follows: Tissue culture-treated 100 mm plates (Corning, Corning, N.Y.) were coated with 10 μg/ml anti-human CD3 clone OKT3 antibody overnight at 4° C. Polarization was initiated by seeding approximately 2-3 e7 human CD4+ T cells onto the anti-CD3 plates in Polarization media consisting of: RPMI 1640 medium (Lonza, Allendale, N.J.) supplemented with 10% (v/v) charcoal-dextran treated, heat inactivated FBS (Omega Scientific, Tarzana, Calif.), 0.05 mM 2-Mercaptoethanol (Sigma-Aldrich, St. Louis, Mo.), and 1×Pen/Strep Amphotericin B (Lonza), with added recombinant human IL-23 (40 ng/ml) and anti-CD28 clone CD28.2 antibody (2 μg/ml); all recombinant human cytokines and anti-human neutralizing antibodies were purchased from eBioscience (San Diego, Calif.). Cells were incubated in the above Polarization media for 3 days at 37° C. in a humidified atmosphere at 5% CO2. After 3 days, the Polarization media was replaced with Maintenance media, consisting of RPMI 1640/FBS/2-Mercaptoethanol/Pen/Strep Amphotericin B supplemented with recombinant human IL-23 (40 ng/ml) alone, and the cells were re-plated onto regular tissue-culture-treated plates (not anti-CD3 coated). Cells were incubated in the Maintenance media for an additional 3 days at 37° C. in a humidified atmosphere at 5% CO2.
Inhibition of PMA/ionomycin-stimulated cytokine response by in vitro-differentiated human Th17 cells: Human Th17 cells, generated as described above, were seeded at 2e6 cells/ml in RPMI 1640 containing 10% (v/v) charcoal-dextran treated, heat inactivated FBS (Omega Scientific, Tarzana, Calif.), 0.05 mM 2-Mercaptoethanol (Sigma-Aldrich, St. Louis, Mo.), and 1×Pen/Strep Amphotericin B (Lonza, Allendale, N.J.). Cells were pre-treated with test compounds (10 μM) for 1 h at 37° C. in a humidified atmosphere at 5% CO2. Cells were then stimulated with 50 ng/ml phorbol 12-myristate 13-acetate (PMA) (Sigma-Aldrich, St. Louis, Mo.)+1 μg/ml ionomycin (Life Technologies, Grand Island, N.Y.) for 20 h at 37° C. in a humidified atmosphere at 5% CO2. Supernatant was collected and analyzed using Bio-Plex Pro Human Th17 Cytokine 15-Plex Panel (Bio-Rad Laboratories, Hercules, Calif.) as per manufacturer's protocols. Magnetic beads were read on the Bio-Plex MAGPIX multiplex reader instrument using the accompanying xPONENT 4.2 acquisition software (Bio-Rad Laboratories). Data were analyzed via the Bio-Plex Manager software v6.1 (Bio-Rad Laboratories). Cytokine secretion levels from Th17 cells treated with 0.1% DMSO+Stimulation were normalized to 100%.
IL-1β, IL-25, and IL-33 were below the limit of detection under conditions used. The concentrations of the observed analytes from top to bottom, as listed, are as follows: 8899, 567, 174, 99, 10380, 511, 239, 548, 81, 966, 504, and 76223 pg/ml.

Assay [2] has as its system primary asthmatic human bronchial epithelial cells. Briefly: IL-17A- or IL-17F-mediated cytokine response by primary asthmatic human bronchial epithelial cells. Format: cell-based. The following applies: Epithelial cell, 48 h, 48 h. As to the method: The virally immortalized, normal human bronchial epithelial cell line BEAS-2B was purchased from ATCC (Manassas, Va.). Primary bronchial epithelial cells isolated from a patient diagnosed with asthma were obtained from Lonza (Allendale, N.J.). Both cells were maintained in complete Bronchial Epithelial Cell Growth Medium (BEGM) (Lonza). Cells were seeded at 1e5 cells/ml and incubated at 37° C. in a humidified atmosphere at 5% CO2 overnight to adhere. Cells were pre-treated with test compounds (10 μM down by ⅕ in a 3- or 4-point serial dilution series) for 1 h at 37° C. in a humidified atmosphere at 5% CO2. DMSO at a final concentration of 0.1% served as the non-inhibited control. Budesonide (Selleck Chemicals, Houston, Tex.), a clinically approved glucocorticoid steroid for the treatment of asthma, was tested as a positive control at 0.25 μM. Cells were stimulated with 50 ng/ml of either human recombinant IL-17A or IL-17F (eBioscience, San Diego, Calif.), for 48 h. Supernatant was then collected and analyzed for cytokine concentrations using the Bio-Plex Pro Human Cytokine 17-Plex Panel (Bio-Rad Laboratories, Hercules, Calif.) according to the manufacturer's instructions. Magnetic beads were measured on the Bio-Plex MAGPIX multiplex reader instrument using the accompanying xPONENT 4.2 acquisition software (Bio-Rad Laboratories). Data were analyzed via the Bio-Plex Manager software v6.1 (Bio-Rad Laboratories). For the primary asthmatic bronchial epithelial cells, five (+IL-17F) to thirteen (+IL-17A) cytokines were in range of detection under the conditions used. […] Select cytokines were analyzed for comparison using the BEAS-2B cell line.
BLQ: cytokine levels were below limits of quantitation.

The mark [3] stands for this setting: read-out: Percent inhibition of IFNγ (relative to DMSO control).
Setting [4] is: read-out: Percent inhibition of IL-4 (relative to DMSO control).
The mark [5] stands for this setting: read-out: Percent inhibition of IL-6 (relative to DMSO control).
The mark [6] stands for this setting: read-out: Percent inhibition of IL-10 (relative to DMSO control).
The mark [7] stands for this setting: read-out: Percent inhibition of IL-17A (relative to DMSO control).
The mark [8] stands for this setting: read-out: Percent inhibition of IL-17F (relative to DMSO control).
The mark [9] stands for this setting: read-out: Percent inhibition of IL-21 (relative to DMSO control).
The mark [10] stands for this setting: read-out: Percent inhibition of IL-22 (relative to DMSO control).
The mark [11] stands for this setting: read-out: Percent inhibition of IL-23 (relative to DMSO control).
Setting [12] is: read-out: Percent inhibition of IL-31 (relative to DMSO control).
[13] abbreviates: read-out: Percent inhibition of TNFα (relative to DMSO control).
Setting [14] is: read-out: Percent inhibition of sCD40L (relative to DMSO control).
The mark [15] stands for this setting: +50 ng/ml IL-17A, read-out: EC50 values (μM), G-CSF.
Setting [16] is: +50 ng/ml IL-17A, read-out: EC50 values (μM), GM-CSF.
Where [17] appears, read: +50 ng/ml IL-17A, read-out: EC50 values (μM), IFN-γ.
Setting [18] is: +50 ng/ml IL-17A, read-out: EC50 values (μM), IL-1β.
Where [19] appears, read: +50 ng/ml IL-17A, read-out: EC50 values (μM), IL-2.
Where [20] appears, read: +50 ng/ml IL-17A, read-out: EC50 values (μM), IL-6.
Where [21] appears, read: +50 ng/ml IL-17A, read-out: EC50 values (μM), IL-8.
Setting [22] is: +50 ng/ml IL-17A, read-out: EC50 values (μM), MCP-1.
Where [23] appears, read: +50 ng/ml IL-17F, read-out: EC50 values (μM), G-CSF.
[24] abbreviates: +50 ng/ml IL-17F, read-out: EC50 values (μM), IFN-γ.
Setting [25] is: +50 ng/ml IL-17F, read-out: EC50 values (μM), IL-1β.
The mark [26] stands for this setting: +50 ng/ml IL-17F, read-out: EC50 values (μM), IL-6.
[27] abbreviates: +50 ng/ml IL-17F, read-out: EC50 values (μM), IL-8.

As to `CCOc1cc(C(=O)N2CCC(N3CCCC3)CC2)ccc1Nc1cc2c(cn1)N(C)C(=O)c1ccccc1N2C` [Compound 46, 3-(2-Ethoxy-4-(4-(pyrrolidin-1-yl)piperidine-1-carbonyl)phenylamino)-5,11-dimethyl-5H-benzo[e]pyrido[3,4-b][1,4]diazepin-10(11H)-one], the inhibition – broadly, the relative decrease from the control value, in per cent – at 10 µM is 11.9% in assay [1] (setting [3]); -2.8% in assay [1] (setting [4]); 90.6% in assay [1] (setting [5]); 79.7% in assay [1] (setting [6]); 56.6% in assay [1] (setting [7]); 81.8% in assay [1] (setting [8]). Also, the inhibition at 10 µM in assay [1] (setting [9]) is -6.1%; in assay [1] (setting [10]), 74%; in assay [1] (setting [11]), -58.8%; in assay [1] (setting [12]), -3%; in assay [1] (setting [13]) it was 22%; in assay [1] (setting [14]) it was 36.3%.
For the compound `CCOc1cc(C(=O)NCC2CC2)ccc1Nc1cc2c(cn1)N(C)C(=O)c1ccccc1N2C` [Compound 57], the inhibition at 10 µM in assay [1] (setting [3]) was 17.4%; in assay [1] (setting [4]), -11.8%; in assay [1] (setting [5]) it was 93.1%; in assay [1] (setting [6]), 80%; in assay [1] (setting [7]) it was 49.5%; in assay [1] (setting [8]), 67.4%. Besides, the inhibition at 10 µM in assay [1] (setting [9]) is 28.6%; in assay [1] (setting [10]), 76.8%; in assay [1] (setting [11]), 29.8%; in assay [1] (setting [12]), 3%; in assay [1] (setting [13]), 5.6%; in assay [1] (setting [14]) it was 32.3%.
For `CCOc1cc(C(=O)N2CCC(N3CCN(C)CC3)CC2)ccc1Nc1cc2c(cn1)N(C)C(=O)c1ccccc1N2C` [Compound 61], the inhibition at 10 µM was 7.6% in assay [1] (setting [3]); -19.5% in assay [1] (setting [4]); 91.4% in assay [1] (setting [5]); 78.6% in assay [1] (setting [6]); 37.5% in assay [1] (setting [7]); 80.9% in assay [1] (setting [8]). For the same compound, the inhibition at 10 µM in assay [1] (setting [9]) was 22.4%; in assay [1] (setting [10]), 65.8%; in assay [1] (setting [11]), -2.8%; in assay [1] (setting [12]) it was -1.1%; in assay [1] (setting [13]) it was -6.3%; in assay [1] (setting [14]) it was 19%. Also, the EC50 (as a rule, the concentration that produces a half-maximal response) in assay [2] (setting [15]) was 1.66 µM; in assay [2] (setting [16]), 3.38 µM; in assay [2] (setting [17]) it was greater than 10 µM; in assay [2] (setting [18]), 1.26 µM; in assay [2] (setting [19]) it was 10.5 µM; in assay [2] (setting [20]) it was 0.5 µM. In addition, the EC50 turned out to be 0.51 µM in assay [2] (setting [21]); 6.25 µM in assay [2] (setting [22]); 0.91 µM in assay [2] (setting [23]); 0.6 µM in assay [2] (setting [24]); 0.79 µM in assay [2] (setting [25]); 0.38 µM in assay [2] (setting [26]). In addition, the concentration giving a half-maximal response (EC50) in assay [2] (setting [27]) turned out to be 0.52 µM.
Take `CCOc1cc(C(=O)N2CCNCC2)ccc1Nc1cc2c(cn1)N(C)C(=O)c1ccccc1N2C` [Compound 62]: the inhibition at 10 µM is 11.7% in assay [1] (setting [3]); -17% in assay [1] (setting [4]); 87.8% in assay [1] (setting [5]); 80.3% in assay [1] (setting [6]); 27.7% in assay [1] (setting [7]); 60% in assay [1] (setting [8]). Besides, the inhibition at 10 µM in assay [1] (setting [9]) is 2.5%; in assay [1] (setting [10]), 66.2%; in assay [1] (setting [11]) it was 15.8%; in assay [1] (setting [12]), -1.4%; in assay [1] (setting [13]), -10.4%; in assay [1] (setting [14]), 31.9%.
For `CCOc1cc(C(=O)N2CCC(N3CCN(C)CC3)CC2)ccc1Nc1cc2c(cn1)N(C)C(=O)c1occc1N2C` [Compound 65], the inhibition at 10 µM is -0.6% in assay [1] (setting [3]); 4.6% in assay [1] (setting [4]); 87.3% in assay [1] (setting [5]); 78.6% in assay [1] (setting [6]); 13.9% in assay [1] (setting [7]); 39.7% in assay [1] (setting [8]). Besides, the inhibition at 10 µM in assay [1] (setting [9]) was 0.8%; in assay [1] (setting [10]), 61.7%; in assay [1] (setting [11]), -79.4%; in assay [1] (setting [12]) it was -3.2%; in assay [1] (setting [13]), 11.3%; in assay [1] (setting [14]), 31.6%. For the same compound, the EC50 was 2.68 µM in assay [2] (setting [15]); 4.06 µM in assay [2] (setting [16]); greater than 10 µM in assay [2] (setting [17]); 1.57 µM in assay [2] (setting [18]); greater than 10 µM in assay [2] (setting [19]); 0.56 µM in assay [2] (setting [20]). Further, the concentration for a half-maximal effect (EC50) in assay [2] (setting [21]) was 0.63 µM; in assay [2] (setting [22]), greater than 10 µM; in assay [2] (setting [23]), 1.77 µM; in assay [2] (setting [24]), 1.98 µM; in assay [2] (setting [25]) it was 1.57 µM; in assay [2] (setting [26]) it was 0.59 µM. The EC50 in assay [2] (setting [27]) was 1.27 µM.
